Reference: US8106039B2, “Metal complex phosphatidyl-inositol-3-kinase inhibitors” (The Trustees Of The University Of Pennsylvania, priority 2008, dated 2012)

What was measured:
[1] = system: melanoma cells grown as 3D collagen-implanted spheroids; assay: 3D spheroid growth / invasion; format: cell-based, human; details: 30 μM; 72 hours; FIG. 4C
Description: 3D Spheroid Growth. Melanoma spheroids were prepared using the liquid overlay method. Briefly, […] of melanoma cells (25,000 cells per ml) were added to a 96-well plate coated with 1.5% agar (Difco, Sparks MD). Plates were left to incubate for 72 hours, by which time cells had organized into 3D spheroids. Spheroids were then harvested using a P1000 pipette. The media was removed and the spheroids were implanted into a gel of bovine collagen I containing EMEM, L-glutamine and 2% FBS. Normal 2% melanoma media was overlaid on top of the solidified collagen. Spheroids were treated with either E5E1 (10-30 μM), or E5E2 (10-30 μM), before being left to grow for 72 hours. Spheroids were then washed twice in PBS before being treated with calcein-AM, ethidium bromide (Molecular Probes, Eugene, Oreg.) for 1 hour at 37° C., according to the manufacturer's instruction. After this time, pictures of the invading spheroids were taken using a Nikon-300 inverted fluorescence microscope.

[2] = system: phospho-AKT in a melanoma cell line; assay: Western blot analysis of phospho-AKT in melanoma cells; format: cell-based, human; details: FIG. 4A
Description: Western Blot Analysis. Proteins were extracted and blotted for as described in (41). […] Antibodies to phospho-AKT and total AKT were from Cell Signaling Technology, (Beverly, Mass.). The monoclonal antibody to β-actin was from Sigma.

[3] = system: 1205Lu melanoma cell line; assay: Cell proliferation (MTT) assay; format: cell-based, human; details: increasing concentrations, 72 hours, FIG. 4B
Description: Cell Proliferation (MTT) Assay. Cells were plated into a 96-well plate at a density of 2.5×10^4 cells per ml and left to grow overnight. Cells were treated with increasing concentrations of E5E1 (0.03-30 μM), […] or LY 294002 (Calbiochem, San Diego, Calif.) (0.01-30 μM) in triplicate. In each instance cells were grown for 72 hours before being treated with 20 μl of MTT for 3 hours (Sigma). After this time, the media was rapidly removed and the MTT crystals were solubilized using DMSO. The resulting absorbance was read in a plate reader at 560 nm. Absorbance readings were subtracted from the value of blank wells, the reduction in cell growth was calculated as a percentage of control absorbance in the absence of any drug.

[4] = biological target: T1, human PI3Kγ catalytic domain (Homo sapiens, UniProt P48736); assay: PI3K Kinase-Glo assay; format: biochemical; details: for IC50: 1.4 pmoles PI3K, FIG. 3A, read-out: IC50 PI3Kγ inhibition
T1 construct: made in house; host or cells: baculovirus expression (virus obtained from the MRC, United Kingdom)
T1 sequence (P48736 144-1102 limits assumed): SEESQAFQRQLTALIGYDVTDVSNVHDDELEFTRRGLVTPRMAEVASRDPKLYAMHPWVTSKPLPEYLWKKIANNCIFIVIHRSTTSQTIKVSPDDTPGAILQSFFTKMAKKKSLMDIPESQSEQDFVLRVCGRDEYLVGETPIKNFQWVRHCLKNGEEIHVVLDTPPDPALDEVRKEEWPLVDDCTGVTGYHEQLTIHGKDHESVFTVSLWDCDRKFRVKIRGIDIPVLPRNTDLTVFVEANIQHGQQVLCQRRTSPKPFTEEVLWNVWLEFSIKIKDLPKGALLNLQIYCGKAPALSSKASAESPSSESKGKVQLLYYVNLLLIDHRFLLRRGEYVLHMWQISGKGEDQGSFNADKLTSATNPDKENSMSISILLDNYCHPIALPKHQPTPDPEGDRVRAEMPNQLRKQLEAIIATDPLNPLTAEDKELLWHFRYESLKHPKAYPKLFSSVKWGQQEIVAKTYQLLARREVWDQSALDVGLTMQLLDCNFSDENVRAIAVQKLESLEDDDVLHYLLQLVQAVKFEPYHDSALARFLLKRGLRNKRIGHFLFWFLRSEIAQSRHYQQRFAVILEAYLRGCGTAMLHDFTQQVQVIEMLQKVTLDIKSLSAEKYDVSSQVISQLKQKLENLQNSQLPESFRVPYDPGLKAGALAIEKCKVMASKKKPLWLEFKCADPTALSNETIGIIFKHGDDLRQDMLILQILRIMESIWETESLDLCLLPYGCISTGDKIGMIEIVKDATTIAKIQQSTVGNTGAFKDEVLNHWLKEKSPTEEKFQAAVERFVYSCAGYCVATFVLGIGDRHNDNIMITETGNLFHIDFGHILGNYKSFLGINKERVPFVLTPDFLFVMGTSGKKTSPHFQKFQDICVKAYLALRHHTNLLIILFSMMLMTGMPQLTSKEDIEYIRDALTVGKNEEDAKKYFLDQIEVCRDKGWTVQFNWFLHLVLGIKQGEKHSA
Description: PI3K Kinase-Glo Assay. Recombinantly expressed human PI3Kγ catalytic domain was preincubated with various concentration of inhibitors with a final DMSO concentration of 2% in reaction buffer (20 mM Tris pH 7.5, 100 mM NaCl, 10 mM MgCl2) for 1 hour at room temperature before this mixture was added to a solution of 0.1 mg/mL D-myo-Phosphatidylinositol 4,5-biphosphate (PtdIns (4,5)P2, Echelon Biosciences) and 10 μM ATP. 14 pmoles PI3K was used in compounds DW12, DW12Me, EAd125 comparison and 1.4 pmoles PI3K was used for compounds E5, E5E2, E5E1 measurements. The kinase reaction was carried out in a 50 μL final volume in a 96-well microtiter plate at 37° C. for 3 hours before 50 μL Kinase-Glo® (Promega) developing solution was added into the mixture to generate a luminescence signal. The signal was recorded using the PerkinElmer Wallac 1420 luminometer using a luminescence filter. Data were processed and IC50 values were derived from using 2% DMSO and with no kinase as controls and a sigmoidal dose response curve fitting by GraphPad Prism.

[5] = biological target: PAK1 (Homo sapiens, UniProt Q13153); assay: PAK1 kinase assay; format: biochemical; details: inhibitor concentration of 4 μM; FIG. 3B
PAK1, sequence (Q13153 whole entry): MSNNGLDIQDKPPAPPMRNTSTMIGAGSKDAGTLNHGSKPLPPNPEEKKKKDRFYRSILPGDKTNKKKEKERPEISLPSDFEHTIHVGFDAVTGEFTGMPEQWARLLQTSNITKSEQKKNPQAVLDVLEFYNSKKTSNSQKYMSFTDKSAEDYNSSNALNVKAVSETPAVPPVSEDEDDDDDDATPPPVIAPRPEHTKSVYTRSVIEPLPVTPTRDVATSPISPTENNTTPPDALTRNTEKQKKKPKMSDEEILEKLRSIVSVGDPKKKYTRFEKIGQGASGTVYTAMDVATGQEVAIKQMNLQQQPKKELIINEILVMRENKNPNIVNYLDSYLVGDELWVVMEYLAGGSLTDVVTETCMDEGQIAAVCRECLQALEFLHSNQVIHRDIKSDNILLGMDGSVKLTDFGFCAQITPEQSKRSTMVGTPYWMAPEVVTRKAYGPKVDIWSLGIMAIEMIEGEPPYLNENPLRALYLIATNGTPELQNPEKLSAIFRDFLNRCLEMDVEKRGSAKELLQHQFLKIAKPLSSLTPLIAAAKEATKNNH
Description: PAK1 kinase assay—Kinase assays were performed using labeled γ-P^32 ATP and the incorporation of labeled phosphate onto the myelin basic protein (MBP) substrate was monitored. Different concentrations of compound inhibitor were incubated with 0.1 nM PAK1 kinase in 20 mM MOPS pH 7, 30 mM MgCl2, 1 mM EDTA, 0.8 μg/μL bovine serum albumin, 5% DMSO (resulting from the inhibitor stock solution), in the presence of 25 μg of MBP substrate for 20 minutes. Reactions were initiated by adding ATP to a final concentration of 1 μM including 0.2 μCi/μL γ-^32P ATP to a final volume of 25 μL. The reactions were terminated by spotting 17.5 μL onto a circular P81 phosphocellulose paper (diameter 2.1 cm), followed by washing three times with 0.75% phosphoric acid and one time with acetone. The dried P81 papers were transferred to scintillation vials and 4 ml of scintillation cocktail was added. The counts per minute (CPM) were measured with a scintillation counter and the enzyme activity in the presence of the inhibitor was calculated as a percentage of the control sample corrected by the background.

[6] = biological target: T2, MST1 (Homo sapiens, UniProt Q13043); assay: MST1 kinase assay; format: biochemical; details: inhibitor concentration of 4 μM; FIG. 3B
T2 sequence (Q13043 1-487): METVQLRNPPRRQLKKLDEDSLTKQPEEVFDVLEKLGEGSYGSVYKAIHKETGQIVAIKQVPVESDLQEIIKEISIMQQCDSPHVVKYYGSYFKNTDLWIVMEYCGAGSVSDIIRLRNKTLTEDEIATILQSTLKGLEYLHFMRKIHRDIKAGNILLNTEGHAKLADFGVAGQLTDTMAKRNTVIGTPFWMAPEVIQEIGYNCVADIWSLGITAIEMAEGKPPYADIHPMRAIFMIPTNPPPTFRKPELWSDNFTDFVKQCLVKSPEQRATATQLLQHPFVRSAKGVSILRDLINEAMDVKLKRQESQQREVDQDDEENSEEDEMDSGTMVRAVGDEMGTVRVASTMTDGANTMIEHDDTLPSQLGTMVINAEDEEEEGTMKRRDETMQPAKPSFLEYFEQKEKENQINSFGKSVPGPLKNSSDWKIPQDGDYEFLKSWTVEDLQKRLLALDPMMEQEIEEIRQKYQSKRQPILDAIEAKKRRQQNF
Description: MST1 kinase assay—Kinase assays were performed using labeled γ-P^32 ATP and the incorporation of labeled phosphate onto the substrate FOXO was monitored. Kinase assays were performed using kinase buffer containing 10 mM Tris pH 7.5, 10 mM MgCl2, 1 mM dithiothreitol (DTT), 1 mM phenylmethylsulfonyl fluoride (PMSF) and a cocktail containing phosphatase inhibitor. 5 μCi of labeled γ-P^32 ATP and a final concentration of 200 μM of ATP were used for each reaction. 10 nM of the enzyme was pre-incubated for 30 min with various concentrations of inhibitor and an equivalent amount of DMSO was used as a control. After 30 min of incubation of the enzyme with the inhibitor, 1 μg of substrate was added. The reaction was initiated by addition of ATP. All reactions were incubated at 37° C. for 30 min. and then stopped with SDS gel-loading dye; subsequently samples were heated for 3 min and loaded onto a 16% Tris-glycine gel (Novagen). The bands were visualized using high sensitivity Kodak film and the results were quantified using the software ImageJ.

[7] = biological target: BRAF^V600E (Homo sapiens, UniProt P15056, V600E); assay: BRAF kinase assay (V600E); format: biochemical; details: inhibitor concentration of 4 μM; FIG. 3B
BRAF^V600E, sequence (P15056 whole entry V600E): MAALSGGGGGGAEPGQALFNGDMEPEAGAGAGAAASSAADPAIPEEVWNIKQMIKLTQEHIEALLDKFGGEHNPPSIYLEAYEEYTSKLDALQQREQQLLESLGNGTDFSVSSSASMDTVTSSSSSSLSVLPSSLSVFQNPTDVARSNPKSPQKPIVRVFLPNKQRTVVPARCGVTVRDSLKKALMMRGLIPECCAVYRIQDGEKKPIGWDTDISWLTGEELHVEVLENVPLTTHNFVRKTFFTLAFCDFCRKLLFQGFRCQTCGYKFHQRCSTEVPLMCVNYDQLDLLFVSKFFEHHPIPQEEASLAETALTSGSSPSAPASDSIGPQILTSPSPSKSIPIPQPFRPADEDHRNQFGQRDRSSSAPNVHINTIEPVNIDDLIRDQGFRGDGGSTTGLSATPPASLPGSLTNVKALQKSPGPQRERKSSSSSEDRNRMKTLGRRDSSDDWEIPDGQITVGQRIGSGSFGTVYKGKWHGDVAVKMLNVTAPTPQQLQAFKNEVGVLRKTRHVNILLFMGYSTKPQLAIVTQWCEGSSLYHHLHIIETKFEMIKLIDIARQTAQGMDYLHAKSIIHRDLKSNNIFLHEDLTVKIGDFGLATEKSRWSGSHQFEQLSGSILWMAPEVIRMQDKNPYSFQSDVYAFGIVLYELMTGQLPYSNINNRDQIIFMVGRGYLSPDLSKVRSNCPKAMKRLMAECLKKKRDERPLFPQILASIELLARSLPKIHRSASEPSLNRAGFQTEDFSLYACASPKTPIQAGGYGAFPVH
Description: (§1) BRAF kinase assay—Recombinantly expressed GST-MEK diluted in TTBS buffer (20 mM Tris pH 7.5, 150 mM NaCl, 0.05% TWEEN-20) to 50 μg/mL in a volume of 100 μL was bound to the wells of a 96-well glutathione coated plate (Pierce Biotechnology). 1 μL of compound with 2× serial dilutions in a 100% DMSO stock solution were added to a mixture of 50 μL of a buffer containing 50 mM HEPES pH 7.0 with 0.7 pmoles of BRAF kinase. This mixture was incubated at room temperature for 1 hour before it was added into the GST-MEK bound wells of the 96-well plate. An additional 50 μL of phosphorylation buffer (50 mM HEPES pH 7.0, 200 mM NaCl, 10 mM MgCl2, 200 μM ATP) was added into the well mixture to start the kinase reaction at 37° C. for 30 min with intermittent shaking. The kinase reaction was stopped by extensive washing with TTBS buffer and a 1:5000 dilution of Anti-phospho-MEK1 (Ser218/222)/MEK2 (Ser222/226) monoclonal antibody (Millipore) in TTBS was subsequently added into the wells and incubated for 1 hour with shaking. Goat Anti-Rabbit IgG (H+L)-HRP Conjugate (BioRad Laboratories) in a 1:5000 dilution was added into the wells to incubate at room temperature with shaking. Finally, the SuperSignal ELISA Pico chemiluminescent substrate (Pierce Biotechnology) was added into the wells. The luminescence signal was recorded with a luminescence filter using a Wallac 1420 luminometer (PerkinElmer).

[8] = biological target: BRAF mutants (Leu513 mutated to valine and alanine); assay: BRAF kinase assay with site directed mutants; format: biochemical, human; details: FIG. 6B
Description: as §1, with “(PerkinElmer). […]” for “(PerkinElmer).”

[9] = biological target: BRAF^WT (Homo sapiens, UniProt P15056); assay: BRAF kinase assay (wild type); format: biochemical
BRAF^WT, sequence (P15056 whole entry): as the sequence (P15056 whole entry V600E) above, with E600V counted along it
Description: as §1

SMILES	invasion of melanoma cells from 3D spheroids [1]	block of constitutive activity of AKT (phospho-AKT) [2]	cell proliferation (MTT) [3]	IC50 [4] [nM]	inhibition of PAK1 [5]	inhibition of MST1 [6]	inhibition of BRAF^V600E [7]	IC50 [8] [nM]	PI3K inhibition / inhibitory potency (in words) ([4]; comparison among the inhibitors, FIG. 2C, FIG. 9)	inhibition of BRAF^WT ([9]; inhibitor concentration of 4 μM, FIG. 3B)	inhibition against wild-type BRAF ([9]; inhibitor concentration of 10 μM, FIG. 6B)
CN1C(=O)c2c(c3c4cc(O)ccc4[n]4c3c3c2cc(F)c[n+]3[Ru-2]42356([C]#[O+])[CH]4[CH]2[CH]3[C]5(C(=O)NC(C)(CO)CO)[CH]46)C1=O (single isomer, unassigned) [Compound E5E1]	completely blocked	block the constitutive activity of AKT in a concentration dependent manner	inhibition of cell proliferation	41							
O=c1cc(N2CCOCC2)oc2c(-c3ccccc3)cccc12 [LY294002, 2-(4-morpholinyl)-8-phenyl-4H-1-benzopyran-4-one, reference compound]			inhibition of cell proliferation								
CN1C(=O)c2c(c3c4cc(O)ccc4[n]4c3c3c2cc(F)c[n+]3[Ru-2]42356([C]#[O+])[CH]4[CH]2[CH]3[C]5(C(=O)NC(C)(CO)CO)[CH]46)C1=O (single isomer, unassigned) [Compound E5E2]				39	did not show appreciable inhibition	did not show appreciable inhibition	did not show appreciable inhibition	~10000	potent	did not show appreciable inhibition	no detectable inhibition
